pIC50: −log10 of the molar value.
Columns and labels:
[1] = test system: Hela cancer cell line; assay: Cell inhibition assay (SRB cell viability), Hela; assay type: cell-based; conditions: Homo sapiens, HeLa, 72 h, Hela cells, IC50 range
Outline: (§1)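 Log-phase Hela, U937 and HUT cells were seeded at 1000 cells/well, grown 24 h, then exposed to compound (20 uM final) for 72 h. Viability was read by sulphorhodamine B staining and expressed as % inhibition relative to DMSO control. IC50 values came from sigmoidal variable-slope fits of eight concentrations.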

[2] = test system: HUT cancer cell line; assay: Cell inhibition assay (SRB cell viability), HUT; assay type: cell-based; conditions: HUT cells, 72 h, IC50 range
Outline: as §1

[3] = test system: U937 cancer cell line; assay: Cell inhibition assay (SRB cell viability), U937; assay type: cell-based; conditions: Homo sapiens, U-937, U937 cells, 72 h, IC50 range
Outline: as §1

[4] = target: T1, histone deacetylase activity (HeLa nuclear extract); assay: HDAC fluorescent activity assay (Biomol Fluor de Lys), HeLa nuclear extract; assay type: biochemical; conditions: Fluor de Lys substrate, IC50 range
T1 construct: Histone deacetylase activity from crude nuclear extract derived from HeLa cells was used for screening
Outline: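 Crude HeLa nuclear extract (20 mM Hepes, 100 mM KCl, 0.2 mM EDTA, 0.5 mM DTT, 0.2 mM PMSF, 20% glycerol) incubated with acetyl-lysine Fluor de Lys substrate ± inhibitor; developer generates fluorophore. Background-subtracted % of vehicle control; IC50 from eight-point variable-slope sigmoidal fit.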

## CC(C)(C)OC[C@H](NCc1ccc(CNCc2ccc3cc(C(=O)NO)sc3c2)cc1)C(=O)OC1CCCC1 [Compound 109, (S)-3-tert-Butoxy-2-(4-{[(2-hydroxycarbarnoyl-benzo[b]thiophen-6-ylmethyl)-amino]-methyl}-benzylamino)-propionic acid cyclopentyl ester]
[1]
  pIC50: 5.48 to 6.48
[2]
  pIC50: 5.48 to 6.48
[3]
  pIC50: > 6.48
[4]
  pIC50: > 7.00

## CSCC[C@H](NCc1ccc(CNCc2ccc3cc(C(=O)NO)sc3c2)cc1)C(=O)OC1CCCC1 [Compound 110, (S)-2-(4-{[(2-Hydroxycarbamoyl-benzo[b]thiophen-6-ylmethyl)-amino]-methyl}-benzylamino)-4-methylsulfanyl-butyric acid cyclopentyl ester]
[1]
  pIC50: 5.48 to 6.48
[2]
  pIC50: > 6.48
[3]
  pIC50: > 6.48
[4]
  pIC50: > 7.00

## O=C(NO)c1cc2ccc(CNCc3ccc(CN4CCC[C@H]4C(=O)OC4CCCC4)cc3)cc2s1 [Compound 111, (S)-1-(4-{[(2-Hydroxycarbamoyl-benzo[b]thiophen-6-ylmethyl)-amino]-methyl}-benzyl)-pyrrolidine-2-carboxylic acid cyclopentyl ester]
[1]
  pIC50: > 6.48
[2]
  pIC50: > 6.48
[3]
  pIC50: > 6.48
[4]
  pIC50: > 7.00

## CC(C)(C)SC[C@H](NCc1ccc(CNCc2ccc3cc(C(=O)NO)sc3c2)cc1)C(=O)OC1CCCC1 [Compound 113, (R)-3-tert-Butylsulfanyl-2-(4-{[(2-hydroxycarbamoyl-benzo[b]thiophen-6-ylmethyl)-amino]-methyl}-benzylamino)-propionic acid cyclopentyl ester]
[1]
  pIC50: 5.48 to 6.48
[2]
  pIC50: 5.48 to 6.48
[3]
  pIC50: 5.48 to 6.48
[4]
  pIC50: 6.00 to 7.00

## CC(C)(C)[C@H](NCc1ccc(CNCc2ccc3cc(C(=O)NO)sc3c2)cc1)C(=O)OC1CCCC1 [Compound 115, (S)-2-(4-{[(2-Hydroxycarbamoyl-benzo[b]thiophen-6-ylmethyl)-amino]-methyl}-benzylamino)-3,3-dimethyl-butyric acid cyclopentyl ester]
[1]
  pIC50: 5.48 to 6.48
[2]
  pIC50: 5.48 to 6.48
[3]
  pIC50: 5.48 to 6.48
[4]
  pIC50: 6.00 to 7.00

## O=C(NO)c1cc2ccc(CNCc3ccc(CN[C@H](C(=O)OC4CCCC4)C4CCCCC4)cc3)cc2s1 [Compound 116, (S)-Cyclohexyl-(4-{[(2-hydroxycarbamoyl-benzo[b]thiophen-6-ylmethyl)-amino]-methyl}-benzylamino)-acetic acid cyclopentyl ester]
[1]
  pIC50: < 5.48
[2]
  pIC50: < 5.48
[3]
  pIC50: 5.48 to 6.48
[4]
  pIC50: 6.00 to 7.00

## C[C@H](NCc1ccc(CNCc2ccc3cc(C(=O)NO)sc3c2)cc1)C(=O)OC1CCCC1 [Compound 118, (S)-2-(4-{[(2-Hydroxycarbamoyl-benzo[b]thiophen-6-ylmethyl)-amino]-methyl}-benzylamino)-propionic acid cyclopentyl ester]
[1]
  pIC50: > 6.48
[2]
  pIC50: > 6.48
[3]
  pIC50: > 6.48
[4]
  pIC50: > 7.00

## CC(C)C[C@H](NCc1ccc(CNCc2ccc3cc(C(=O)NO)sc3c2)cc1)C(=O)OC1CCCC1 [Compound 122]
[1]
  pIC50: 5.48 to 6.48
[2]
  pIC50: 5.48 to 6.48
[3]
  pIC50: > 6.48
[4]
  pIC50: > 7.00

## O=C(NO)c1cc2ccc(CNCc3ccc(CN[C@H](C(=O)OC4CCCC4)c4ccccc4)cc3)cc2s1 [Compound 124, (S)-(4-{[(2-Hydroxycarbamoyl-benzo[b]thiophen-6-ylmethyl)-amino]-methyl}-benzylamino)-phenyl-acetic acid cyclopentyl ester]
[1]
  pIC50: 5.48 to 6.48
[2]
  pIC50: 5.48 to 6.48
[3]
  pIC50: > 6.48
[4]
  pIC50: 6.00 to 7.00

## CC(C)C[C@H](NCC1CCC(CNCc2ccc3cc(C(=O)NO)sc3c2)CC1)C(=O)OC1CCCC1 (stereo partly drawn) [Compound 128, (S)-2-[(4-{[(2-Hydroxycarbamoyl-benzo[b]thiophen-6-ylmethyl)-amino]-methyl}-cyclohexylmethyl)-amino]-4-methyl-pentanoic acid cyclopentylester]
[1]
  pIC50: 5.48 to 6.48
[2]
  pIC50: > 6.48
[3]
  pIC50: > 6.48
[4]
  pIC50: 6.00 to 7.00

## O=C(NO)c1cc2ccc(CNc3cccc(CN[C@H](C(=O)OC4CCCC4)c4ccccc4)c3)cc2s1 [Compound 130, (S)-{3-[(2-Hydroxycarbamoyl-benzo[b]thiophen-6-ylmethyl)-amino]-benzyl-amino}-phenyl-acetic acid cyclopentyl ester]
[1]
  pIC50: < 5.48
[2]
  pIC50: < 5.48
[3]
  pIC50: 5.48 to 6.48
[4]
  pIC50: < 6.00

## O=C(NO)c1cc2ccc(CNc3cccc(CN[C@H](C(=O)OC4CCCC4)C4CCCCC4)c3)cc2s1 [Compound 131, (S)-{3-[(2-Hydroxycarbamoyl-benzo[b]thiophen-6-ylmethyl)-amino]-benzylamino}-cyclohexyl-acetic acid cyclopentyl ester]
[1]
  pIC50: < 5.48
[2]
  pIC50: < 5.48
[3]
  pIC50: 5.48 to 6.48
[4]
  pIC50: < 6.00

## CC(C)(C)OC[C@H](NCc1cccc(NCc2ccc3cc(C(=O)NO)sc3c2)c1)C(=O)OC1CCCC1 [Compound 132, (S)-3-tert-Butoxy-2-{3-[(2-hydroxycarbamoyl-benzo[b]thiophen-6-ylmethyl)-amino]-benzylamino}-propionic acid cyclopentyl ester]
[1]
  pIC50: < 5.48
[2]
  pIC50: 5.48 to 6.48
[3]
  pIC50: 5.48 to 6.48
[4]
  pIC50: 6.00 to 7.00

## CC(C)C[C@H](NCc1cccc(NCc2ccc3cc(C(=O)NO)sc3c2)c1)C(=O)OC1CCCC1 [Compound 133, (S)-2-{3-[(2-Hydroxycarbamoyl-benzo[b]thiophen-6-ylmethyl)-amino]-benzylamino}-4-methyl-pentanoic acid cyclopentyl ester]
[1]
  pIC50: 5.48 to 6.48
[2]
  pIC50: < 5.48
[3]
  pIC50: 5.48 to 6.48
[4]
  pIC50: 6.00 to 7.00
